In this assay the target is T1, Squalene synthase (Rattus norvegicus, UniProt Q02769).
T1 sequence (Q02769 whole entry): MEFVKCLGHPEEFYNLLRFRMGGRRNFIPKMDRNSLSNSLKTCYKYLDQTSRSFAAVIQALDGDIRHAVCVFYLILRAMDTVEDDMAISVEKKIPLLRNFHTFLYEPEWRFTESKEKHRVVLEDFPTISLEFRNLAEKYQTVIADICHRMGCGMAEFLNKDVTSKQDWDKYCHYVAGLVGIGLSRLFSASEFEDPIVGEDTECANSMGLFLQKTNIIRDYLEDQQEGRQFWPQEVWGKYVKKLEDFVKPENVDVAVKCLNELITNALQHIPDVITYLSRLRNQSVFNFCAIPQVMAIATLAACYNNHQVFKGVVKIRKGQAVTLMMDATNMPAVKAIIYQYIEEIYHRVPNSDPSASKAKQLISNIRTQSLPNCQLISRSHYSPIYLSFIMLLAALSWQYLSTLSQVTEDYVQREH
The experiment in a line: In vitro for inhibitory activity against Squalene synthase in rat.

Consider 23 compounds from ChEMBL document CHEMBL1128537, “The squalestatins: synthesis and biological activity of some C3-modified analogues; replacement of a carboxylic acid or methyl ester with an isoelectronic heterocyclic functionality” (J Med Chem, 1995).

Consider `C=C(CC[C@]12O[C@H](c3nnn(C)n3)[C@@](O)(C(=O)O)[C@](C(=O)O)(O1)[C@H](O)[C@H]2O)[C@@H](C(C)=O)[C@H](C)Cc1ccccc1`, for which the IC50 (commonly the midpoint of a concentration-inhibition curve) came out at 0.156 µM.

`C=C(CC[C@]12O[C@H](c3nnc(C)[nH]3)[C@@](O)(C(=O)O)[C@](C(=O)O)(O1)[C@H](O)[C@H]2O)[C@@H](C(C)=O)[C@H](C)Cc1ccccc1` yielded an IC50 of 0.312 µM. In turn, `C=C(CC[C@]12O[C@H](c3nnc(NC)o3)[C@@](O)(C(=O)O)[C@](C(=O)O)(O1)[C@H](OC(=O)/C=C/[C@@H](C)C[C@@H](C)CC)[C@H]2O)[C@@H](C(C)=O)[C@H](C)Cc1ccccc1` yielded an IC50 of 0.01 µM. The compound `C=C(CC[C@]12O[C@H](c3nnnn3C)[C@@](O)(C(=O)O)[C@](C(=O)O)(O1)[C@H](O)[C@H]2O)[C@@H](C(C)=O)[C@H](C)Cc1ccccc1` came in with an IC50 of 0.442 µM. In the case of `C=C(CC[C@]12O[C@H](c3csc(C)n3)[C@@](O)(C(=O)O)[C@](C(=O)O)(O1)[C@H](O)[C@H]2O)[C@@H](C(C)=O)[C@H](C)Cc1ccccc1`, the 50% inhibitory concentration (IC50) is 2.88 µM. For `C=C(CC[C@]12O[C@H](c3cscn3)[C@@](O)(C(=O)O)[C@](C(=O)O)(O1)[C@H](O)[C@H]2O)[C@@H](C(C)=O)[C@H](C)Cc1ccccc1` the value was 0.505 µM; for `C=C(CC[C@]12O[C@H](c3cnc[nH]3)[C@@](O)(C(=O)O)[C@](C(=O)O)(O1)[C@H](O)[C@H]2O)[C@@H](C(C)=O)[C@H](C)Cc1ccccc1`, 0.785 µM. With `C=C(CC[C@]12O[C@H](c3nnc(NC)o3)[C@@](O)(C(=O)O)[C@](C(=O)O)(O1)[C@H](O)[C@H]2O)[C@@H](C(C)=O)[C@H](C)Cc1ccccc1` the figure was 0.147 µM; with `C=C(CC[C@]12O[C@H](c3n[nH]c(=S)n3C)[C@@](O)(C(=O)O)[C@](C(=O)O)(O1)[C@H](O)[C@H]2O)[C@@H](C(C)=O)[C@H](C)Cc1ccccc1`, 1.94 µM. `C=C(CC[C@]12O[C@H](C(=O)OC)[C@@](O)(C(=O)O)[C@](C(=O)O)(O1)[C@H](O)[C@H]2O)[C@@H](C(C)=O)[C@H](C)Cc1ccccc1`: half-maximal inhibition (IC50) was put at 0.22 µM. With `C=C(CC[C@]12O[C@H](c3nnn[nH]3)[C@@](O)(C(=O)O)[C@](C(=O)O)(O1)[C@H](OC(=O)/C=C/[C@@H](C)C[C@@H](C)CC)[C@H]2O)[C@@H](C(C)=O)[C@H](C)Cc1ccccc1` the figure was 0.004 µM; with `C=C(CC[C@]12O[C@H](C(=O)OC)[C@@](O)(C(=O)O)[C@](C(=O)O)(O1)[C@H](OC(=O)/C=C/[C@@H](C)C[C@@H](C)CC)[C@H]2O)[C@@H](C(C)=O)[C@H](C)Cc1ccccc1`, 0.007 µM.

`C=C(CC[C@]12O[C@H](c3csc(NC)n3)[C@@](O)(C(=O)O)[C@](C(=O)O)(O1)[C@H](O)[C@H]2O)[C@@H](C(C)=O)[C@H](C)Cc1ccccc1` displayed a 50% inhibitory concentration (IC50) of 1.18 µM. With `C=C(CC[C@]12O[C@H](c3nnnn3C)[C@@](O)(C(=O)O)[C@](C(=O)O)(O1)[C@H](OC(=O)/C=C/[C@@H](C)C[C@@H](C)CC)[C@H]2O)[C@@H](C(C)=O)[C@H](C)Cc1ccccc1` the figure was 0.057 µM.

For the compound `C=C(CC[C@]12O[C@H](c3nc(C)no3)[C@@](O)(C(=O)O)[C@](C(=O)O)(O1)[C@H](OC(=O)/C=C/[C@@H](C)C[C@@H](C)CC)[C@H]2O)[C@@H](C(C)=O)[C@H](C)Cc1ccccc1`, the IC50 is 0.072 µM. With `C=C(CC[C@]12O[C@H](c3cscn3)[C@@](O)(C(=O)O)[C@](C(=O)O)(O1)[C@H](OC(=O)/C=C/[C@@H](C)C[C@@H](C)CC)[C@H]2O)[C@@H](C(C)=O)[C@H](C)Cc1ccccc1` the figure was 0.092 µM; with `C=C(CC[C@]12O[C@H](c3csc(C)n3)[C@@](O)(C(=O)O)[C@](C(=O)O)(O1)[C@H](OC(=O)/C=C/[C@@H](C)C[C@@H](C)CC)[C@H]2O)[C@@H](C(C)=O)[C@H](C)Cc1ccccc1`, 0.357 µM. For `C=C(CC[C@]12O[C@H](c3nc(C)no3)[C@@](O)(C(=O)O)[C@](C(=O)O)(O1)[C@H](O)[C@H]2O)[C@@H](C(C)=O)[C@H](C)Cc1ccccc1` the value was 0.31 µM; for `C=C(CC[C@]12O[C@H](c3nnn(C)n3)[C@@](O)(C(=O)O)[C@](C(=O)O)(O1)[C@H](OC(=O)/C=C/[C@@H](C)C[C@@H](C)CC)[C@H]2O)[C@@H](C(C)=O)[C@H](C)Cc1ccccc1`, 0.043 µM. For `C=C(CC[C@]12O[C@H](c3csc(N)n3)[C@@](O)(C(=O)O)[C@](C(=O)O)(O1)[C@H](OC(=O)/C=C/[C@@H](C)C[C@@H](C)CC)[C@H]2O)[C@@H](C(C)=O)[C@H](C)Cc1ccccc1` the value was 0.063 µM.

Turning to `C=C(CC[C@]12O[C@H](c3nnc(S)n3C)[C@@](O)(C(=O)O)[C@](C(=O)O)(O1)[C@H](OC(=O)/C=C/[C@@H](C)C[C@@H](C)CC)[C@H]2O)[C@@H](C(C)=O)[C@H](C)Cc1ccccc1`, the midpoint of inhibition, the IC50, lay at 0.172 µM. The compound `C=C(CC[C@]12O[C@H](c3csc(NC)n3)[C@@](O)(C(=O)O)[C@](C(=O)O)(O1)[C@H](OC(=O)/C=C/[C@@H](C)C[C@@H](C)CC)[C@H]2O)[C@@H](C(C)=O)[C@H](C)Cc1ccccc1` registered a half-inhibitory concentration (IC50) of 0.146 µM. For `C=C(CC[C@]12O[C@H](c3nnn[nH]3)[C@@](O)(C(=O)O)[C@](C(=O)O)(O1)[C@H](O)[C@H]2O)[C@@H](C(C)=O)[C@H](C)Cc1ccccc1` the value was 0.025 µM.
